Measured values published in patent US11814367B2, “Inhibitors of glycogen synthase 1 (GYS1) and methods of use thereof” (Maze Therapeutics, Inc., priority 2021, dated 2023).

Key:
[1] = target: hGYS1 enzyme (recombinant hGYS1/GN1 protein) (Homo sapiens (Human), UniProt P13807); assay: GYS1 coupled enzyme assay (PK/LDH); type: biochemical; settings: hGYS1/GN1 50 nM, UDP-Glucose 0.8 mM, G6P 1 mM; geometric mean of at least 2 runs
[2] = target: hGYS2 enzyme (recombinant hGYS2/GN1 protein) (Homo sapiens (Human), UniProt P54840); assay: GYS2 coupled enzyme assay (PK/LDH); type: biochemical; settings: geometric mean of at least 2 assay runs on separate days, read-out: Avg_IC50
hGYS2 enzyme (recombinant hGYS2/GN1 protein), sequence (P54840 whole entry): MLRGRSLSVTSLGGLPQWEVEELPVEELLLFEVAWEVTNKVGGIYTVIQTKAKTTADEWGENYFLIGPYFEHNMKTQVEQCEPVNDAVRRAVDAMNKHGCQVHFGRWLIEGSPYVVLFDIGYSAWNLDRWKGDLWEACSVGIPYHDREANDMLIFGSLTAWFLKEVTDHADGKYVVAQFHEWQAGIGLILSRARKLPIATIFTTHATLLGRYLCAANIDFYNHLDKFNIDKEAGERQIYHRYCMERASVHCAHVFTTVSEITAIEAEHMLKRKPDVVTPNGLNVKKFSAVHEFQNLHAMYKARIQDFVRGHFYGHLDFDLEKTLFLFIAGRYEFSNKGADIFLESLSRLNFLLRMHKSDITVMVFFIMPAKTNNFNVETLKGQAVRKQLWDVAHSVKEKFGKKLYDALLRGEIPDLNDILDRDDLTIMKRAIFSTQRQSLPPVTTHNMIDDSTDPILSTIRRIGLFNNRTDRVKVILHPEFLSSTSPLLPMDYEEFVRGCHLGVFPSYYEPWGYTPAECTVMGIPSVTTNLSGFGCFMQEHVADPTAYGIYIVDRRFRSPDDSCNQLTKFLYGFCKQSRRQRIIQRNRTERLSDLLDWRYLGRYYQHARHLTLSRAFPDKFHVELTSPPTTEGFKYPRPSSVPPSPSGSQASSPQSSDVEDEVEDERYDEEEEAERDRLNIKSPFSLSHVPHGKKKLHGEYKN
hGYS2 enzyme (recombinant hGYS2/GN1 protein), sequence (P46976 whole entry partner): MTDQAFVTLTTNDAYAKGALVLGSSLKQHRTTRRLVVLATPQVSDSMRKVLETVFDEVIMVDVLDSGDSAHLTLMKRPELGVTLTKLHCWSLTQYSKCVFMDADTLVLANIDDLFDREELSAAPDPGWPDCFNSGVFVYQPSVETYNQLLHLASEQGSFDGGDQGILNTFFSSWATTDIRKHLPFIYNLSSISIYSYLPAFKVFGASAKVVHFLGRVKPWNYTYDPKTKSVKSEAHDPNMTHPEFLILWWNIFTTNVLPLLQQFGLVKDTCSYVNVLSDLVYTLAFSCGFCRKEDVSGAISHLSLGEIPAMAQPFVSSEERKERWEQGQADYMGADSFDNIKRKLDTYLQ
In short: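 Read-out: NADH loss at 340 nm, read each minute for 10 min, slope normalized to controls, duplicate % inhibition fit to Hill (0–100). Enzyme: 200 nM hGYS2/GN1; substrate 2 mM UDP-glucose plus 0.2% glycogen and 2 mM G6P; pH 7.5 Tris, 2.5% DMSO.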

[3] = tested on: hGYS1 enzyme / glycogen synthesis in HeLa cells; assay: GYS1 cell based assay (glycogen synthesis, Glucose-glo); design: species or system human; settings: Homo sapiens, HeLa, 24 h, 24 h incubation, 20 mM glucose, geometric mean of at least 2 runs
In short: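 HeLa cells starved 24 h in medium containing only 1× Glutamax were plated onto compound in medium with 20 mM glucose (1% DMSO final) for 24 h, 37 °C, 5% CO2. Acid lysates were Tris-quenched, glucoamylase-digested (pH 5.3, 1 h, 37 °C) and read by Glucose-glo luminescence. IC50 came from Hill fits, as geometric mean of ≥2 runs.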

hGYS1 enzyme (recombinant hGYS1/GN1 protein), sequence (P13807 whole entry): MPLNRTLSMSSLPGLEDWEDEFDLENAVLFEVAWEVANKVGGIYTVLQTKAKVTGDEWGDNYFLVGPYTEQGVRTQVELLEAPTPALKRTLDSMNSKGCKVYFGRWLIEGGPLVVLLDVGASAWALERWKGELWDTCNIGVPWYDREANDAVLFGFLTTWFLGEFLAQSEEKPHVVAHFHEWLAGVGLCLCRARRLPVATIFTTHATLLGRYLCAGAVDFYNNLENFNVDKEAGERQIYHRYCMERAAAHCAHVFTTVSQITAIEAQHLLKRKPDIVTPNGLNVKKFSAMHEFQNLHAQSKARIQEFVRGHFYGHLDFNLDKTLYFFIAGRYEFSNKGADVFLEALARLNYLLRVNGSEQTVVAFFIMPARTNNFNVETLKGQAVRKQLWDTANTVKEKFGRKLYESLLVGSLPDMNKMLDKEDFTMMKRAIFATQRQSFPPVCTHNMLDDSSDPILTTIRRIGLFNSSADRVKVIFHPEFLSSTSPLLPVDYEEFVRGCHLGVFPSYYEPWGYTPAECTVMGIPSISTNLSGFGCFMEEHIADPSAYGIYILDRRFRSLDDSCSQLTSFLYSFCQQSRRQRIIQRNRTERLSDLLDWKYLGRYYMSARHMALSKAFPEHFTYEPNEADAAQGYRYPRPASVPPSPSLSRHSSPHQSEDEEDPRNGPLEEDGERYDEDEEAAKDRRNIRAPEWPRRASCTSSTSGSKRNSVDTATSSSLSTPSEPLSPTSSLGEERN
hGYS1 enzyme (recombinant hGYS1/GN1 protein), sequence (P46976 whole entry partner): as the sequence (P46976 whole entry partner) above

Row | Structure (SMILES) | IC50 [1] [nM] | IC50 [2] [nM] | IC50 [3] [nM]
1 | O=C(N[C@@H](c1ccccc1)c1ccc(C2CC2)c(F)c1)[C@@H]1C[C@@H](F)CN1C(=O)Cc1nnc(C(F)F)o1 [Compound 427, (2S,4R)-N-[(S)-(4-cyclopropyl-3-fluorophenyl)(phenyl)methyl]-1-{2-[5-(difluoromethyl)-1,3,4-oxadiazol-2-yl]acetyl}-4-fluoropyrrolidine-2-carboxamide] | 165 | > 100000 | 1960
2 | CC(C)c1ccc([C@@H](NC(=O)[C@@H]2C[C@@H](F)CN2C(=O)Cc2nncn2C)c2ccccc2)cc1 (stereo in doubt) [Compound 227, (2RS,4R)-4-fluoro-1-[2-(4-methyl-4H-1,2,4-triazol-3-yl)acetyl]-N-[(S)-phenyl[4-(propan-2-yl)phenyl]methyl]pyrrolidine-2-carboxamide] | 76 | > 100000 | 1310
3 | CC(C)c1ccc([C@@H](NC(=O)[C@@H]2C[C@@H](F)CN2C(=O)Cc2[nH]nnc2C(F)(F)F)c2ccccc2)nc1F [Compound 403, (2S,4R)-4-fluoro-N-[(S)-[6-fluoro-5-(propan-2-yl)pyridin-2-yl](phenyl)methyl]-l-{2-[4-(trifluoromethyl)-1H-1,2,3-triazol-5-yl]acetyl}pyrrolidine-2-carboxamide] | 4 | > 100000 | 140
4 | Cc1nccc(NCC(=O)N2C[C@H](F)C[C@H]2C(=O)N[C@@H](c2ccccc2)c2ccc(C(C)C)cn2)n1 [Compound 269, (2S,4R)-4-fluoro-1-{2-[(2-methylpyrimidin-4-yl)amino]acetyl}-N-[(S)-phenyl[5-(propan-2-yl)pyridin-2-yl]methyl]pyrrolidine-2-carboxamide] | 14 | > 100000 | 240
5 | Cc1cn(CC(=O)N2C[C@H](F)C[C@H]2C(=O)N[C@@H](c2ccccc2)c2ccc(C3CC(F)(F)C3)c(F)n2)c(=O)[nH]c1=O [Compound 506, (2S,4R)-N-[(S)-[5-(3,3-difluorocyclobutyl)-6-fluoropyridin-2-yl](phenyl)methyl]-4-fluoro-1-[2-(5-methyl-2,4-dioxo-1,2,3,4-tetrahydropyrimidin-1-yl)acetyl] pyrrolidine-2-carboxamide] | 4 | > 100000 | 370
6 | Cc1nc2ccccc2n1CC(=O)N1C[C@H](F)C[C@H]1C(=O)N[C@@H](c1ccccc1)c1ccc(C2(C)CC2)c(F)c1 [Compound 566, (2S,4R)-4-fluoro-N-[(S)-[3-fluoro-4-(1-methylcyclopropyl)phenyl](phenyl)methyl]-1-[2-(2-methyl-1H-1,3-benzodiazol-1-yl)acetyl]pyrrolidine-2-carboxamide] | 46 | > 100000 | 770
7 | Cc1cn(CC(=O)N2C[C@H](F)C[C@H]2C(=O)N[C@@H](c2ccccc2)c2ccc(C3CC3)c(F)c2)cn1 [Compound 468, (2S,4R)-N-[(S)-(4-cyclopropyl-3-fluorophenyl)(phenyl)methyl]-4-fluoro-1-[2-(4-methyl-1H-imidazol-1-yl)acetyl]pyrrolidine-2-carboxamide] | 91 | > 100000 | 1430
8 | CNC(=O)NCC(=O)N1C[C@H](F)C[C@H]1C(=O)N[C@@H](c1ccccc1)c1ccc(C(C)C)c(F)n1 [Compound 395, (2S,4R)-4-fluoro-N-[(S)-[6-fluoro-5-(propan-2-yl)pyridin-2-yl](phenyl)methyl]-1-{2-[(methylcarbamoyl)amino]acetyl}pyrrolidine-2-carboxamide] | 8 | > 100000 | 240
9 | CN(C)C(=O)NCC(=O)N1C[C@H](F)C[C@H]1C(=O)N[C@@H](c1ccccc1)c1ccc(C2CC(F)(F)C2)cn1 [Compound 532, (2S,4R)—N—((S)-(5-(3,3-difluorocyclobutyl)pyridin-2-yl)(phenyl)methyl)-1-((dimethylcarbamoyl)glycyl)-4-fluoropyrrolidine-2-carboxamide] | 65 | > 100000 | 1180
10 | CC(C)c1ccc([C@@H](NC(=O)[C@@H]2C[C@@H](F)CN2C(=O)C(C)n2cnnn2)c2ccccc2)cc1F (single isomer, unassigned) [Compound 766, (2S,4R)-4-fluoro-N-[(S)-[3-fluoro-4-(propan-2-yl)phenyl](phenyl)methyl]-1-[(2R) or (2S)-2-(1H-1,2,3,4-tetrazol-1-yl)propanoyl]pyrrolidine-2-carboxamide] | 38 | > 100000 | 350
11 | CC1(c2ccc([C@@H](NC(=O)[C@@H]3C[C@@H](F)CN3C(=O)COC(=O)N3CCC3)c3ccccc3)cc2F)CC1 [Compound 560, 2-[(2S,4R)-4-fluoro-2-{[(S)-[3-fluoro-4-(1-methylcyclopropyl)phenyl](phenyl)methyl]carbamoyl}pyrrolidin-1-yl]-2-oxoethyl azetidine-1-carboxylate] | 144 | > 100000 | 1800
12 | O=C(N[C@@H](c1ccccc1)c1ccc(C2CC2)c(F)c1)[C@@H]1C[C@@H](F)CN1C(=O)COC(=O)N1CCC1 [Compound 451, 2-[(2S,4R)-2-{[(S)-(4-cyclopropyl-3-fluorophenyl)(phenyl)methyl]carbamoyl}-4-fluoropyrrolidin-1-yl]-2-oxoethyl azetidine-1-carboxylate] | 95 | > 100000 | 1570
13 | O=C(N[C@@H](c1ccccc1)c1ccc(C2CC(F)(F)C2)c(F)n1)[C@@H]1C[C@@H](F)CN1C(=O)Cc1ccc[nH]c1=O [Compound 517, (2S,4R)-N-[(S)-[5-(3,3-difluorocyclobutyl)-6-fluoropyridin-2-yl](phenyl)methyl]-4-fluoro-1-[2-(2-oxo-1,2-dihydropyridin-3-yl)acetyl]pyrrolidine-2-carboxamide] | 8 | > 100000 | 540
14 | CC1(c2ccc([C@@H](NC(=O)[C@@H]3C[C@@H](F)CN3C(=O)Cn3c(=O)[nH]c4ccccc43)c3ccccc3)nc2F)CC1 [Compound 599, (2S,4R)-4-fluoro-N-[(S)-[6-fluoro-5-(1-methylcyclopropyl)pyridin-2-yl](phenyl)methyl]-1-[2-(2-oxo-2,3-dihydro-1H-1,3-benzodiazol-1-yl)acetyl]pyrrolidine-2-carboxamide] | 40 | > 100000 | 720
15 | CC(C)c1ccc([C@@H](NC(=O)[C@@H]2C[C@@H](F)CN2C(=O)Cc2cccnn2)c2ccccc2)cc1F [Compound 343] | 27 | > 100000 | 460
16 | Cc1nn(CC(=O)N2C[C@H](F)C[C@H]2C(=O)N[C@@H](c2ccccc2)c2ccc(C3CC(F)(F)C3)cn2)c(=O)o1 [Compound 541, (2S,4R)-N-[(S)-[5-(3,3-difluorocyclobutyl)pyridin-2-yl](phenyl)methyl]-4-fluoro-1-[2-(5-methyl-2-oxo-2,3-dihydro-1,3,4-oxadiazol-3-yl)acetyl]pyrrolidine-2-carboxamide] | 55 | > 100000 | 650
17 | CC(C)c1ccc([C@@H](NC(=O)[C@@H]2C[C@@H](F)CN2C(=O)Cc2ccccn2)c2ccccc2)cc1F [Compound 349, (2S,4R)-4-fluoro-N-[(S)-[3-fluoro-4-(propan-2-yl)phenyl](phenyl)methyl]-1-[2-(pyridin-2-yl)acetyl]pyrrolidine-2-carboxamide] | 25 | > 100000 | 400
